According to patent EP1693059A1, “Use of rocaglamide derivatives as NF-AT-specific inhibitors for the treatment of certain inflammatory diseases” (Deutsches Krebsforschungszentrum, priority 2005, dated 2006):

What was measured:
[1] = tested on: NF-kappa B; settings: Baumann et al., 2002; cited from earlier work
[2] = tested on: NF-kappa B subunit p65; assay: Immunoblot of nuclear NF-kappa B subunit p65 in activated Jurkat T cells; assay type: cell-based, human; settings: PMA/ionomycin 2 h
Protocol: Many inflammatory cytokine genes are transcriptionally activated by the inducible, ubiquitous transcription factors NF-AT, AP-1 and NF-kappa B (Tsai et al., 1996; Sica et al., 1997; Falvo et al., 2000; Macian et aL, 2001; Kaminuma et al., 2002; Li-Weber & Krammer, 2003). Therefore, we first examined the effect of the rocagtamide derivatives on nuclear expression levels of NF-AT, the AP-1 subunit c-Jun, and the NF-kappa B subunit p65 in activated T cells. Nuclear proteins were prepared from Jurkat T cells, stimulated by PMA/iouomycin for 2 h in the presence or absence of different doses of rocaglamides. […] CsA is a well known immunosuppressive reagent that targets NF-AT activity.

[3] = tested on: NF-kappa B; assay: NF-kappa B consensus luciferase reporter in Jurkat T cells; assay type: cell-based, human; settings: for inhibition of NF-kappa B-dependent transcription: doses higher than 150 nM, 480 min
Description: Luciferase reporter construct containing the human IL-2 (-300/+47), the human IL-4 (-269/+11) promoter and the multiple IL-4 NF-AT (P1) luciferase constructs were generated previously (Ehret et al., 2001; Li-Weber et al., 1998). The multiple copies of the AP-1 binding site from SV40 enhancer ([…]), the NF-kappa B consensus sequence ([…]) and the human IL-2 NF-AT (-282/-250) element ([…]) were constructed by ligation of the DNA sequence into the multiple-cloning site of pTATA-Luc vector. The luciferase reporter construct containing the human IFN-γ (-854/+7) promoter was construct by ligation of the IFN-γ promoter sequence generated by PCR into the luciferase reporter vector. All constructs were confirmed by sequencing analysis. The pLuc-Bax promoter reporter plasmid was kindly provided by M. L. Schmitz (Department for Chemistry and Biochemistry, University of Bern, Switzerland).
Jurkat T cells were transfected by eleclroporation as previously described (Li-Weber et al., 1998). After overnight recovering, the cells were divided and treated with different doses of rocaglamides and than further cultured in the absence or presence of PMA (10 ng/ml) and ionomycin (0.5 µM) for 8 h. Luciferase activity was determined in 10 µl of cell extract using the luciferase assay substrate (Promega Corp., Heidelberg, Germany) with a Duolumat LB9507 luminometer (Berthold, Bad Wildbad, Germany).
Characteristically, NF-AT family proteins act synergistically with AP-1 (Fos/Jun) proteins to activate genes containing composite NF-AT and AP-1 binding sites (Macian et al., 2001). Many cytokine genes, including IL-2, IL-4, and IFN-γ contain NF-AT/AP-1 composite sites in their promoter/enhancer region (Rao et al., 1997). To investigate whether inhibition of NF-AT and c-Jun expression by rocaglamides would lead to suppression of their transcriptional activities, we performed transfection studies with luciferase reporter constructs containing multiple copies of the NF-AT-binding elements derived from the IL-4 and IL-2 promoter and the consensus binding sequences for AP-1 and NF-kappa B, respectively. […]

[4] = tested on: JNK; assay: Immunoblot of phosphorylated JNK in Jurkat T cells; assay type: cell-based, human; settings: with PMA/ionomycin
Protocol: T cells were lysed in ice-cold RIPA buffer (50 mM Tris-HCl, pH 8.0, 120 mM NaCI, 1% NP-40, 0.5% Desoxycholate, 1 mM PMSF, 25 mM NaF, 1% SDS, 1 mM DTT, 0.2 mM Na3V04 and 20 µl/ml protease inhibitors) for 30 min. […] Equal amounts of proteins were separated on 10% SDS-PAGE gels, transferred onto Hybond-ECL nitrocellulose membrane (Amersham Biosciences, Little Chalfon, UK). The membrane was blocked with 5% milk powder in PBS/0.1% Tween 20 for 1 h, washed with the same solution and incubated with antibodies at 37°C for 1 h or overnight at 4 °C. The blots were washed with PBS/Tween and developed with HRP-coupled antibodies followed by enhanced Chemiluminescence Reagent Plus (PerkinElmer Life Sciences, Boston, MA). […] For stripping, membranes were incubated for 30 min at 56 °C in a buffer containing 62.5 mM Tris-HCl, pH 6.7, 2% SDS and 100 mM β-mercaptoethanol.
To investigate the molecular mechanisms of rocaglamides-mediated suppression of NF-AT activity, we examined the effect of rocaglamides on activities of MAP kinases.

For COc1ccc([C@@]23Oc4cc(OC)cc(OC)c4[C@]2(O)[C@H](O)[C@H](C(=O)N(C)C)[C@H]3c2ccccc2)cc1 [Roc-1], the “NF-kappa B activity induced by TNF-α or PMA” value [1] is given as “inhibit NF-kappa B activity”, the “nuclear levels of p65” value [2] is given as “slightly elevated” and the “NF-kappa B activity” value ([3]; concentrations up to 100 nM) is given as “subtle increase”. The “expression of phosphor-JNK (p-JNK)” value [4] was “stronger inducers of p-JNK than Roc-2”.

In the case of COc1ccc([C@@]23Oc4cc(OC)cc(OC)c4[C@]2(O)[C@H](OC(C)=O)[C@H](C(=O)N(C)C)[C@H]3c2ccccc2)cc1 [Roc-2], the “inhibition of NF-kappa B-dependent transcription” value [3] is reported as “about 20%” and the “expression of phosphor-JNK (p-JNK)” value [4] is reported as “Roc-1 and 3 are stronger inducers of p-JNK than Roc-2”.

With COC(=O)[C@H]1[C@@H](OC=O)[C@@]2(O)c3c(OC)cc(OC)cc3O[C@@]2(c2ccc3c(c2)OCO3)[C@@H]1c1ccccc1 [Roc-3] the “inhibition of NF-kappa B-dependent transcription” value [3] was “about 20%” and the “expression of phosphor-JNK (p-JNK)” value [4] was “stronger inducers of p-JNK than Roc-2”.
